Data reported in ChEMBL document CHEMBL1212927, “Synthesis and structure-activity relationships of novel 8a-aza-8a-homoerythromycin A ketolides” (2010).
≈ marks a conversion by molar mass, not a printed value.

What was measured:
Streptococcus pyogenes [1] = test: Antibacterial activity against inducible macrolide-lincosamide-streptogramin B-resistant Streptococcus pyogenes B0543 by agar microdilution method; type: functional
Moraxella catarrhalis = test: Antibacterial activity against Moraxella catarrhalis B0324 by agar microdilution method; type: functional
Streptococcus pneumoniae [2] = test: Antibacterial activity against constitutive macrolide-lincosamide-streptogramin B-resistant Streptococcus pneumoniae B0627 by agar microdilution method; type: functional
Haemophilus influenzae = test: Antibacterial activity against Haemophilus influenzae B0529 by agar microdilution method; type: functional
Staphylococcus aureus [3] = test: Antibacterial activity against inducible macrolide-lincosamide-streptogramin B-resistant Staphylococcus aureus B0538 by agar microdilution method; type: functional
Staphylococcus aureus [4] = test: Antibacterial activity against erythromycin A-susceptible Staphylococcus aureus B0329 by agar microdilution method
Streptococcus pneumoniae [5] = test: Antibacterial activity against efflux-resistant Streptococcus pneumoniae B0326 by agar microdilution method; type: functional
Staphylococcus aureus [6] = test: Antibacterial activity against efflux-resistant Staphylococcus aureus B0331 by agar microdilution method; type: functional
Streptococcus pyogenes [7] = test: Antibacterial activity against erythromycin A-susceptible Streptococcus pyogenes B0542 by agar microdilution method
Streptococcus pyogenes [8] = test: Antibacterial activity against constitutive macrolide-lincosamide-streptogramin B-resistant Streptococcus pyogenes B0544 by agar microdilution method; type: functional
Streptococcus pyogenes [9] = test: Antibacterial activity against efflux-resistant Streptococcus pyogenes B0545 by agar microdilution method; type: functional
Staphylococcus aureus [10] = test: Antibacterial activity against constitutive macrolide-lincosamide-streptogramin B-resistant Staphylococcus aureus B0330 by agar microdilution method; type: functional
Streptococcus pneumoniae [11] = test: Antibacterial activity against erythromycin-susceptible Streptococcus pneumoniae B0541 by agar microdilution method

Structure (SMILES)	MIC (Streptococcus pyogenes [1]) [µg/mL]	MIC (Moraxella catarrhalis) [µg/mL]	MIC (Streptococcus pneumoniae [2]) [µg/mL]	MIC (Haemophilus influenzae) [µg/mL]	MIC (Staphylococcus aureus [3]) [µg/mL]	MIC (Staphylococcus aureus [4]) [µg/mL]	MIC (Streptococcus pneumoniae [5]) [µg/mL]	MIC (Staphylococcus aureus [6]) [µg/mL]	MIC (Streptococcus pyogenes [7]) [µg/mL]	MIC (Streptococcus pyogenes [8]) [µg/mL]	MIC (Streptococcus pyogenes [9]) [µg/mL]	MIC (Staphylococcus aureus [10]) [µg/mL]	MIC (Streptococcus pneumoniae [11]) [µg/mL]
C=CCO[C@]1(C)C[C@@H](C)NC(=O)[C@H](C)[C@@H](O)[C@](C)(O)[C@@H](CC)OC(=O)[C@H](C)C(=O)[C@H](C)[C@H]1O[C@@H]1O[C@H](C)C[C@H](N(C)C)[C@H]1O	> 64	8 (≈ 12.7 µM)	> 64	16 (≈ 25.4 µM)	> 64	8 (≈ 12.7 µM)	4 (≈ 6.36 µM)	16 (≈ 25.4 µM)	4 (≈ 6.36 µM)	> 64	8 (≈ 12.7 µM)	> 64	1 (≈ 1.59 µM)
CC[C@H]1OC(=O)[C@H](C)C(=O)[C@H](C)[C@@H](O[C@@H]2O[C@H](C)C[C@H]([N+](C)(C)[O-])[C@H]2O)[C@](C)(OCC2CO2)C[C@@H](C)NC(=O)[C@H](C)[C@@H](O)[C@]1(C)O (stereo partly drawn)	> 64	> 64	> 64	> 64	> 64	> 64	> 64	> 64	> 64	> 64	> 64	> 64	> 64
CC[C@H]1OC(=O)[C@H](C)C(=O)[C@H](C)[C@@H](O[C@@H]2O[C@H](C)C[C@H](N(C)C)[C@H]2O)[C@](C)(OCC2CO2)C[C@@H](C)NC(=O)[C@H](C)[C@@H](O)[C@]1(C)O (stereo partly drawn)	> 64	16 (≈ 24.8 µM)	> 64	32 (≈ 49.6 µM)	> 64	4 (≈ 6.2 µM)	8 (≈ 12.4 µM)	16 (≈ 24.8 µM)	4 (≈ 6.2 µM)	> 64	8 (≈ 12.4 µM)	> 64	2 (≈ 3.1 µM)
CC[C@H]1OC(=O)[C@H](C)C(=O)[C@H](C)[C@@H](O[C@@H]2O[C@H](C)C[C@H](N(C)C)[C@H]2O)[C@](C)(OCC(O)CNCCCc2ccccc2)C[C@@H](C)NC(=O)[C@H](C)[C@@H](O)[C@]1(C)O (stereo partly drawn)	1 (≈ 1.28 µM)	1 (≈ 1.28 µM)	8 (≈ 10.3 µM)	16 (≈ 20.5 µM)	8 (≈ 10.3 µM)	4 (≈ 5.13 µM)	8 (≈ 10.3 µM)	8 (≈ 10.3 µM)	0.25 (≈ 0.321 µM)	16 (≈ 20.5 µM)	1 (≈ 1.28 µM)	> 64	0.25 (≈ 0.321 µM)
CC[C@H]1OC(=O)[C@H](C)C(=O)[C@H](C)[C@@H](O[C@@H]2O[C@H](C)C[C@H](N(C)C)[C@H]2O)[C@](C)(OCC(O)CNCCc2cccnc2)C[C@@H](C)NC(=O)[C@H](C)[C@@H](O)[C@]1(C)O (stereo partly drawn)	4 (≈ 5.22 µM)	1 (≈ 1.3 µM)	2 (≈ 2.61 µM)	8 (≈ 10.4 µM)	8 (≈ 10.4 µM)	4 (≈ 5.22 µM)	8 (≈ 10.4 µM)	4 (≈ 5.22 µM)	0.25 (≈ 0.326 µM)	32 (≈ 41.7 µM)	2 (≈ 2.61 µM)	> 64	0.5 (≈ 0.652 µM)
CC[C@H]1OC(=O)[C@H](C)C(=O)[C@H](C)[C@@H](O[C@@H]2O[C@H](C)C[C@H](N(C)C)[C@H]2O)[C@](C)(OCC(O)CNCCCc2cccnc2)C[C@@H](C)NC(=O)[C@H](C)[C@@H](O)[C@]1(C)O (stereo partly drawn)	0.5 (≈ 0.64 µM)	0.5 (≈ 0.64 µM)	1 (≈ 1.28 µM)	16 (≈ 20.5 µM)	4 (≈ 5.12 µM)	2 (≈ 2.56 µM)	4 (≈ 5.12 µM)	4 (≈ 5.12 µM)	≤ 0.125	16 (≈ 20.5 µM)	1 (≈ 1.28 µM)	> 64	0.25 (≈ 0.32 µM)
